Legend:
[1] = target: Type-1 angiotensin II receptor (Rattus norvegicus) (UniProt P25095); assay: The compound was tested for Angiotensin II (AII) antagonist activity in vivo in an […], normotensive rat model upon intravenous administration
[2] = target: Type-1 angiotensin II receptor (Rattus norvegicus) (UniProt P25095); assay: The compound was tested for Angiotensin II (AII) antagonist activity in vivo in an AII infused, normotensive rat model upon intravenous administration

Type-1 angiotensin II receptor (Rattus norvegicus), sequence (P25095 whole entry, looked up, the tested form may be a part): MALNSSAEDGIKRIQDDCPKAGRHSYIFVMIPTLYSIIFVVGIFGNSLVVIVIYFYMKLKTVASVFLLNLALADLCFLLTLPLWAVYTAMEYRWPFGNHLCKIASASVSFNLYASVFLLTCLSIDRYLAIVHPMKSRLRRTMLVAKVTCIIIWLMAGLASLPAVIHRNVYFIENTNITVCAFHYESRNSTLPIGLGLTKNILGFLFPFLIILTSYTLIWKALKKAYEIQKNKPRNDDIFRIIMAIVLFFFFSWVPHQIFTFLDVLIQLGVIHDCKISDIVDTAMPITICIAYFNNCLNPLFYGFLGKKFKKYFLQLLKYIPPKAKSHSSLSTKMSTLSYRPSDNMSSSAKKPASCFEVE

SMILES	ED50 [1] [mg/kg]	ED50 [2] [mg/kg]
CCCCc1nc2ccccc2n1Cc1ccc(C(=O)O)c(Br)c1	5	
CCCCc1nc2ccccc2n1Cc1ccc(-c2ccccc2-c2nn[nH]n2)cc1		5.2
CCCCc1nc2ccccc2n1Cc1ccc(C(=O)O)cc1OC	16.1	
CCCCc1nc2ccccc2n1Cc1ccc(C(=O)O)cc1	12.6	
CCCCc1nc2cc(F)ccc2n1Cc1ccc(C(=O)O)cc1	9.1	
CCCCCCc1nc2ccccc2n1Cc1ccc(C(=O)O)cc1	> 20	
CCCCc1nc2ccccc2n1Cc1ccc(C(=O)O)cc1Br	11.1	

— ChEMBL document CHEMBL1126181, “New nonpeptide angiotensin II receptor antagonists. 1. Synthesis, biological properties, and structure-activity relationships of 2-alkyl benzimidazole derivatives” (J Med Chem, 1992)
